Among the data in patent US20250206724A1, “SUBSTITUTED 3-AMINO INDAZOLE DERIVATIVES AS KINASE INHIBITORS” (NERVIANO MEDICAL SCIENCES S.R.L., priority 2022, published 2025) are DC50 values, retold here.

Where a name gives a salt, the structure may show the parent alone.
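Note: compound preincubated 30 min with CDK11A-p58, then probe added and polarization (mP) read 15 min later, 0% displacement is probe plus enzyme, 100% is probe alone.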

The target in the test is T1, CDK11A (Homo sapiens, UniProt Q9UQ88).
T1 sequence (Q9UQ88 346-783): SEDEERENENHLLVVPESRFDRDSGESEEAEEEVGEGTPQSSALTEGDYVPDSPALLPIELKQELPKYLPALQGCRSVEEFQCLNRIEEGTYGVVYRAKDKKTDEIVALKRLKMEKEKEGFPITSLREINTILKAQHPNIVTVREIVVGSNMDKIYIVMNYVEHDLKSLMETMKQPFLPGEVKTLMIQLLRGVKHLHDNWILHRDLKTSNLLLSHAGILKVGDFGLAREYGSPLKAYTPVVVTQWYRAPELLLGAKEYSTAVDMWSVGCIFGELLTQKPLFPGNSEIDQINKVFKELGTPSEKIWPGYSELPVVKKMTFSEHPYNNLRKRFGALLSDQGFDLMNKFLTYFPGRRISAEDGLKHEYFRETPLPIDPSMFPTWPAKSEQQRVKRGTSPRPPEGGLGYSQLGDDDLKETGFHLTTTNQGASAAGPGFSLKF
The note with it: displacement of SNS-032-Atto590 probe (0.002 μM) from CDK11A-p58 (0.032 uM), fluorescence polarization. On the technique in general: In fluorescence polarisation assays a small probe gives low polarisation when free and higher when bound to something large.
`CCCCN1CCC(C(=O)Nc2n[nH]c3ccc(-c4c(F)cccc4Cl)cc23)CC1` [cpd 65, 1-Butyl-N-[5-(2-chloro-6-fluorophenyl)-1H-indazol-3-yl]piperidine-4-carboxamide hydrochloride] came in with a DC50 of 0.11 µM.

`NCCCN1CCC(C(=O)Nc2n[nH]c3ccc(-c4c(F)cccc4Cl)cc23)CC1` [cpd 66, 1-(3-Aminopropyl)-N-[5-(2-chloro-6-fluorophenyl)-1H-indazol-3-yl]piperidine-4-carboxamide dihydrochloride] gave a DC50 of 0.058 µM.

In turn, `COCC(C)N1CCC(C(=O)Nc2n[nH]c3ccc(-c4c(F)cccc4Cl)cc23)CC1` (centres unmarked) [cpd 67, N-[5-(2-Chloro-6-fluorophenyl)-1H-indazol-3-yl]-1-(1-methoxypropan-2-yl)piperidine-4-carboxamide hydrochloride] returned a DC50 of 0.151 µM.

`CN1CCC(C(=O)Nc2n[nH]c3ccc(-c4c(Cl)cccc4Cl)cc23)CC1` [cpd 68, N-[5-(2,6-Dichlorophenyl)-1H-indazol-3-yl]-1-methylpiperidine-4-carboxamide] returned a DC50 of 0.085 µM.

`CCCCN1CCC(C(=O)Nc2n[nH]c3ccc(-c4c(Cl)cccc4Cl)cc23)CC1` [cpd 69, 1-Butyl-N-[5-(2,6-dichlorophenyl)-1H-indazol-3-yl]piperidine-4-carboxamide] gave a DC50 of 0.122 µM.

`CC(C)CN1CCC(C(=O)Nc2n[nH]c3ccc(-c4c(Cl)cccc4Cl)cc23)CC1` [cpd 70, N-[5-(2,6-Dichlorophenyl)-1H-indazol-3-yl]-1-(2-methylpropyl)piperidine-4-carboxamide] showed a DC50 of 0.136 µM.

Turning to `CC(C)(CO)CN1CCC(C(=O)Nc2n[nH]c3ccc(-c4c(Cl)cccc4Cl)cc23)CC1` [cpd 71, N-[5-(2,6-Dichlorophenyl)-1H-indazol-3-yl]-1-(3-hydroxy-2,2-dimethylpropyl)piperidine-4-carboxamide], the DC50 turned out to be 0.135 µM.

Regarding `Cc1ccc(Cl)c(-c2ccc3[nH]nc(NC(=O)C4CCN(C)CC4)c3c2)c1F` [cpd 72, N-[5-(6-Chloro-2-fluoro-3-methylphenyl)-1H-indazol-3-yl]-1-methylpiperidine-4-carboxamide hydrochloride], the DC50 came out at 0.166 µM.

As for `Cc1ccc(F)c(-c2ccc3[nH]nc(NC(=O)C4CCN(C)CC4)c3c2)c1Cl` [cpd 73, N-[5-(2-Chloro-6-fluoro-3-methylphenyl)-1H-indazol-3-yl]-1-methylpiperidine-4-carboxamide hydrochloride], the DC50 is 0.476 µM.

As for `CN1CCC(C(=O)Nc2n[nH]c3ccc(-c4cc(CO)ccc4Cl)cc23)CC1` [cpd 77, N-{5-[2-Chloro-5-(hydroxymethyl)phenyl]-1H-indazol-3-yl}-1-methylpiperidine-4-carboxamide p-toluensulfonate], the DC50 stood at 0.446 µM.

`CN1CCC(C(=O)Nc2n[nH]c3ccc(-c4ccccc4F)cc23)CC1` [cpd 78, N-[5-(2-Fluorophenyl)-1H-indazol-3-yl]-1-methylpiperidine-4-carboxamide hydrochloride] had a DC50 of 0.308 µM.

Compound `CN1CCC(C(=O)Nc2n[nH]c3ccc(-c4ccccc4C#N)cc23)CC1` [cpd 79, N-[5-(2-Cyanophenyl)-1H-indazol-3-yl]-1-methylpiperidine-4-carboxamide p-toluensulfonate] yielded a DC50 of 0.277 µM.

Turning to `CN1CCC(C(=O)Nc2n[nH]c3ccc(-c4cc(Cl)ccc4Cl)cc23)CC1` [cpd 80, N-[5-(2,5-Dichlorophenyl)-1H-indazol-3-yl]-1-methylpiperidine-4-carboxamide hydrochloride], the DC50 is 0.216 µM.

The compound `CN1CCC(C(=O)Nc2n[nH]c3ccc(-c4ccccc4Cl)cc23)CC1` [cpd 85, N-[5-(2-Chlorophenyl)-1H-indazol-3-yl]-1-methylpiperidine-4-carboxamide hydrochloride] came in with a DC50 of 0.393 µM.

For the compound `Cc1ccc(Cl)c(-c2ccc3[nH]nc(NC(=O)C4CCN(C)CC4)c3c2)c1` [cpd 86, N-[5-(2-Chloro-5-methylphenyl)-1H-indazol-3-yl]-1-methylpiperidine-4-carboxamide hydrochloride], the DC50 turned out to be 0.502 µM.

`CN1CCC(C(=O)Nc2n[nH]c3ccc(-c4ccc(F)cc4)cc23)CC1` [cpd 87, N-[5-(4-Fluorophenyl)-1H-indazol-3-yl]-1-methylpiperidine-4-carboxamide hydrochloride] gave a DC50 of 0.988 µM.

`CCc1ccccc1-c1ccc2[nH]nc(NC(=O)C3CCN(C)CC3)c2c1` [cpd 88, N-[5-(2-Ethylphenyl)-1H-indazol-3-yl]-1-methylpiperidine-4-carboxamide hydrochloride] yielded a DC50 of 0.822 µM.

As to `CN1CCC(C(=O)Nc2n[nH]c3ccc(-c4cccc(C#N)c4)cc23)CC1` [cpd 89, N-[5-(3-Cyanophenyl)-1H-indazol-3-yl]-1-methylpiperidine-4-carboxamide hydrochloride], the DC50 was 0.784 µM.

Turning to `CN1CCC(C(=O)Nc2n[nH]c3ccc(-c4ccc(N)cc4)cc23)CC1` [cpd 90, N-[5-(4-Aminophenyl)-1H-indazol-3-yl]-1-methylpiperidine-4-carboxamide dihydrochloride], the DC50 was 0.592 µM.

Regarding `CN1CCC(C(=O)Nc2n[nH]c3ccc(-c4ccc(S(N)(=O)=O)cc4)cc23)CC1` [cpd 92, 1-Methyl-N-[5-(4-sulfamoylphenyl)-1H-indazol-3-yl]piperidine-4-carboxamide hydrochloride], the DC50 came out at 0.799 µM.

Turning to `CN1CCC(C(=O)Nc2n[nH]c3ccc(-c4ccccc4)cc23)CC1` [cpd 93, 1-Methyl-N-(5-phenyl-1H-indazol-3-yl)piperidine-4-carboxamide hydrochloride], the DC50 was determined as 0.938 µM.

`CN1CCC(C(=O)Nc2n[nH]c3ccc(-c4cc(C(F)(F)F)ccc4Cl)cc23)CC1` [cpd 94, N-{5-[2-Chloro-5-(trifluoromethyl)phenyl]-1H-indazol-3-yl}-1-methylpiperidine-4-carboxamide hydrochloride]: the DC50 turned out to be 0.592 µM.

`CN1CCC(C(=O)Nc2n[nH]c3ccc(-c4cccc(Cl)c4Cl)cc23)CC1` [cpd 97, N-[5-(2,3-Dichlorophenyl)-1H-indazol-3-yl]-1-methylpiperidine-4-carboxamide hydrochloride] gave a DC50 of 0.643 µM.

With `CN1CCC(C(=O)Nc2n[nH]c3ccc(-c4cccc(F)c4F)cc23)CC1` [cpd 99, N-[5-(2,3-Difluorophenyl)-1H-indazol-3-yl]-1-methylpiperidine-4-carboxamide hydrochloride], the DC50 stood at 0.173 µM.

For `CN1CCC(C(=O)Nc2n[nH]c3ccc(-c4cccc(F)c4)cc23)CC1` [cpd 101, N-[5-(3-Fluorophenyl)-1H-indazol-3-yl]-1-methylpiperidine-4-carboxamide hydrochloride], the DC50 is 0.692 µM.

Turning to `CN1CCC(C(=O)Nc2n[nH]c3ccc(-c4ccccc4C(F)(F)F)cc23)CC1` [cpd 104, 1-Methyl-N-{5-[2-(trifluoromethyl)phenyl]-1H-indazol-3-yl}piperidine-4-carboxamide hydrochloride], the DC50 is 0.33 µM.

In turn, `CN1CCC(C(=O)Nc2n[nH]c3ccc(-c4c(F)cccc4F)cc23)CC1` [cpd 105, N-[5-(2,6-Difluorophenyl)-1H-indazol-3-yl]-1-methylpiperidine-4-carboxamide hydrochloride] had a DC50 of 0.364 µM.

In the case of `CN1CCC(C(=O)Nc2n[nH]c3ccc(-c4ccc(Cl)cc4Cl)cc23)CC1` [cpd 106, N-[5-(2,4-Dichlorophenyl)-1H-indazol-3-yl]-1-methylpiperidine-4-carboxamide hydrochloride], the DC50 is 0.259 µM.

Consider `CN1CCC(C(=O)Nc2n[nH]c3ccc(-c4ccc(N)cc4Cl)cc23)CC1` [cpd 107, N-[5-(4-Amino-2-chlorophenyl)-1H-indazol-3-yl]-1-methylpiperidine-4-carboxamide dihydrochloride], for which the DC50 came out at 0.2 µM.

The compound `CN1CCC(C(=O)Nc2n[nH]c3ccc(-c4c(Cl)cc(Cl)cc4Cl)cc23)CC1` [cpd 108, 1-Methyl-N-[5-(2,4,6-trichlorophenyl)-1H-indazol-3-yl]piperidine-4-carboxamide hydrochloride] returned a DC50 of 0.15 µM.

Compound `CN1CCC(C(=O)Nc2n[nH]c3ccc(-c4ccc(C(N)=O)cc4)cc23)CC1` [cpd 109, N-[5-(4-Carbamoylphenyl)-1H-indazol-3-yl]-1-methylpiperidine-4-carboxamide hydrochloride] showed a DC50 of 0.967 µM.

Compound `CN1CCC(C(=O)Nc2n[nH]c3ccc(-c4ccc(O)cc4Cl)cc23)CC1` [cpd 111, N-[5-(2-Chloro-4-hydroxyphenyl)-1H-indazol-3-yl]-1-methylpiperidine-4-carboxamide hydrochloride] had a DC50 of 0.141 µM.

For `Cc1cc(C#N)ccc1-c1ccc2[nH]nc(NC(=O)C3CCN(C)CC3)c2c1` [cpd 113, N-[5-(4-Cyano-2-methylphenyl)-1H-indazol-3-yl]-1-methylpiperidine-4-carboxamide hydrochloride], the DC50 was found to be 0.534 µM.

On to `CN1CCC(C(=O)Nc2n[nH]c3ccc(-c4cc([N+](=O)[O-])ccc4F)cc23)CC1` [cpd 115, N-[5-(2-Fluoro-5-nitrophenyl)-1H-indazol-3-yl]-1-methylpiperidine-4-carboxamide hydrochloride], for which the DC50 came out at 0.165 µM.

Compound `CN1CCC(C(=O)Nc2n[nH]c3ccc(-c4cc(C#N)ccc4Cl)cc23)CC1` [cpd 116, N-[5-(2-Chloro-5-cyanophenyl)-1H-indazol-3-yl]-1-methylpiperidine-4-carboxamide trifluoroacetate] registered a DC50 of 0.063 µM.
